Data: patent US9328083B2, “2-aminated methylene or 2-esterified methylene tanshinone derivatives, and preparation method and application thereof” (HANGZHOU BENSHENG PHARMACEUTICAL CO., LTD., priority 2011, dated 2016)
≈ marks a conversion by molar mass, not a printed value.

Experiments:
[1] = system: Hela (human cervical cancer cell); experiment: MTT growth inhibition of human solid tumor cells, 72 h; format: cell-based; conditions: Homo sapiens, HeLa, 72 h; for IC50: read-out: IC50; for IC90: read-out: IC90
Description: (§1) Hep-2 (laryngeal carcinoma), A549 (human lung cancer), CaES-17 (esophageal cancer cell), PC-3 (prostate cancer), CNE (nasopharyngeal carcinoma cell), and SK-OV-3 (ovarian cancer cell), all of which are purchased from China Center For Type Culture Collection; RKO (human colon adenocarcinoma cell), MGC 803 (human gastric cancer cell), MG63 (osteosarcoma) and U87 MG (malignant glioma cell), all of which are purchased from Fuxiang Bio-tech Co. Ltd., Shanghai, China; PANC-1 (pancreatic cancer), Hep G2 (human liver cancer cell), Becap37 (human breast cancer cell) and Hela (human cervical cancer cell), all of which are donated by Cancer Research Institute of Zhejiang University, China.
(§2) The standard sample of tanshinone I (TA) and the 2-aminated methylene or 2-esterified methylene tanshinone I derivatives of the present invention are sufficiently dissolved with dimethylsulfoxide to produce a stock solution of 10 mg/mL, which is refrigerated at 4° C. and stored in dark, and is diluted with a cell culture medium to the desired concentration prior to experimentation.
(§3) Obtaining 4000 well-growing human solid tumor cells and inoculating them into wells of a 96-well cell culture plate. The culture medium is DMEM High Glucose cell culture medium containing 10% fetal bovine serum. The plate is placed in a carbon dioxide cell incubator (5% CO2) at 37° C. and incubated for 24 hours. After adding the 2-aminated methylene or 2-esterified methylene tanshinone I derivatives of different concentrations and mixing uniformly, the plate is placed in a carbon dioxide cell incubator (5% CO2) at 37° C. and incubated for 72 hours. Then the viable cell concentration is determined by the MTT method.

[2] = system: PANC-1 (pancreatic cancer); experiment: as above; format: cell-based; conditions: Homo sapiens, PANC-1, 72 h; for IC50: read-out: IC50; for IC90: read-out: IC90
Description: as §1, §2, §3

MG63 (osteosarcoma) = experiment: as above; format: cell-based; conditions: for IC50 / IC90: Homo sapiens, MG-63, 72 h; for IC50: read-out: IC50; for IC90: read-out: IC90
Description: as §1, §2, §3

[3] = system: Becap37 (human breast cancer cell); experiment: as above; format: cell-based; conditions: Homo sapiens, Becap-37, 72 h; for IC50: read-out: IC50; for IC90: read-out: IC90
Description: as §1, §2, §3

[4] = system: Hep G2 (human liver cancer cell); experiment: as above; format: cell-based; conditions: Homo sapiens, HepG2, Hep G2, 72 h; for IC50: read-out: IC50; for IC90: read-out: IC90
Description: as §1, §2, §3

PC-3 (prostate cancer) = experiment: as above; format: cell-based; conditions: Homo sapiens, PC-3, 72 h; for IC50: read-out: IC50; for IC90: read-out: IC90
Description: as §1, §2, §3

[5] = system: U87 MG (malignant glioma cell); experiment: as above; format: cell-based; conditions: Homo sapiens, U-87 MG, U87-MG, 72 h; for IC50: read-out: IC50; for IC90: read-out: IC90
Description: as §1, §2, §3

A549 (human lung cancer) = experiment: as above; format: cell-based; conditions: Homo sapiens, A549, 72 h; for IC50: read-out: IC50; for IC90: read-out: IC90
Description: as §1, §2, §3

[6] = system: SK-OV-3 (ovarian cancer cell); experiment: as above; format: cell-based; conditions: Homo sapiens, SK-OV-3, 72 h; for IC50: read-out: IC50; for IC90: read-out: IC90
Description: as §1, §2, §3

[7] = system: CaES-17 (esophageal cancer cell); experiment: as above; format: cell-based; conditions: Homo sapiens, CaEs17, CaEs-17, 72 h; for IC50: read-out: IC50; for IC90: read-out: IC90
Description: as §1, §2, §3

[8] = system: MGC 803 (human gastric cancer cell); experiment: as above; format: cell-based; conditions: Homo sapiens, MGC-803, 72 h; for IC50: read-out: IC50; for IC90: read-out: IC90
Description: as §1, §2, §3

[9] = system: RKO (human colon adenocarcinoma cell); experiment: as above; format: cell-based; conditions: Homo sapiens; for IC50: read-out: IC50; for IC90: read-out: IC90
Description: as §1, §2, §3

[10] = system: Hep-2 (laryngeal carcinoma); experiment: as above; format: cell-based; conditions: Homo sapiens, HEp-2, 72 h; for IC50: read-out: IC50; for IC90: read-out: IC90
Description: as §1, §2, §3

[11] = system: CNE (nasopharyngeal carcinoma cell); experiment: as above; format: cell-based; conditions: Homo sapiens; for IC50: read-out: IC50; for IC90: read-out: IC90
Description: as §1, §2, §3

[12] = system: RPMI8226 (multiple myeloma); experiment: MTT growth inhibition of multiple myeloma cells, 72 h; format: cell-based, human; conditions: Homo sapiens, RPMI 8226, 72 h; for IC50: read-out: IC50; for IC90: read-out: IC90
Description: Myeloma cell lines: RPMI8226 (multiple myeloma), purchased from Fuxiang Bio-tech Co. Ltd., Shanghai, China.
as §2
(§4) Obtaining 6000 well-growing myeloma cells as above and inoculating them into wells of a 96-well cell culture plate. The culture medium is the 1640 cell culture medium containing 10% fetal bovine serum. After adding the 2-aminated methylene or 2-esterified methylene tanshinone I derivatives of different concentrations and mixing uniformly, placing the plate in a carbon dioxide cell incubator (5% CO2) at 37° C. and incubated for 72 hours. Then the viable cell concentration is determined by MTT method.

[13] = system: Jurkat (acute lymphoblastic leukemia, ALL); experiment: MTT growth inhibition of leukemia cells, 72 h; format: cell-based, human; conditions: Homo sapiens, 72 h; for IC50: read-out: IC50; for IC90: read-out: IC90
Text: (§5) Leukemia cell lines: leukemia cell lines: K562/adr (drug-resistant, chronic myeloid leukemia, CML), NB4 (acute promyelocytic leukemia, AML), Kasumi-1 (acute myeloid leukemia M2 type, AML-M2), and Jurkat (acute lymphoblastic leukemia, ALL), all of which are donated by Cancer Research Institute of Zhejiang University, China; and H9 (acute lymphoblastic leukemia, ALL), which is purchased from China Center for Type Culture Collection (CCTCC).
as §2
as §4, with “leukemia” for “myeloma”, “cells” for “cells as above”, “RPMI-1640” for “1640”, “adding on the second day” for “adding”

[14] = system: NB4 (acute promyelocytic leukemia, AML); experiment: MTT growth inhibition of leukemia cells, 72 h; format: cell-based, human; conditions: Homo sapiens, NB4, 72 h; for IC50: read-out: IC50; for IC90: read-out: IC90
Text: as §5, §2
as §4, with “leukemia” for “myeloma”, “cells” for “cells as above”, “RPMI-1640” for “1640”, “adding on the second day” for “adding”

[15] = system: Kasumi-1 (acute myeloid leukemia M2 type, AML-M2); experiment: MTT growth inhibition of leukemia cells, 72 h; format: cell-based, human; conditions: Homo sapiens, Kasumi-1, 72 h; for IC50: read-out: IC50; for IC90: read-out: IC90
Text: as §5, §2
as §4, with “leukemia” for “myeloma”, “cells” for “cells as above”, “RPMI-1640” for “1640”, “adding on the second day” for “adding”

[16] = system: H9 (acute lymphoblastic leukemia, ALL); experiment: MTT growth inhibition of leukemia cells, 72 h; format: cell-based, human; conditions: Homo sapiens, H9, 72 h; for IC50: read-out: IC50; for IC90: read-out: IC90
Text: as §5, §2
as §4, with “leukemia” for “myeloma”, “cells” for “cells as above”, “RPMI-1640” for “1640”, “adding on the second day” for “adding”

[17] = system: K562/adr (drug-resistant, chronic myeloid leukemia, CML); experiment: MTT growth inhibition of leukemia cells, 72 h; format: cell-based, human; conditions: Homo sapiens, K562/Adr; for IC50: read-out: IC50; for IC90: read-out: IC90
Text: as §5, §2
as §4, with “leukemia” for “myeloma”, “cells” for “cells as above”, “RPMI-1640” for “1640”, “adding on the second day” for “adding”

C#CCNCc1oc2c(c1C)C(=O)C(=O)c1c-2ccc2c(C)cccc12 [BS-TA-B21]
IC50 [1]: 3.3 µg/mL (≈ 9.61 µM) | IC90 [1]: 7.9 µg/mL (≈ 23 µM) | IC50 [2]: 1.14 µg/mL (≈ 3.32 µM) | IC90 [2]: 7.28 µg/mL (≈ 21.2 µM) | IC50 (MG63 (osteosarcoma)): 4.68 µg/mL (≈ 13.6 µM) | IC90 (MG63 (osteosarcoma)): 15.3 µg/mL (≈ 44.6 µM) | IC50 [3]: 6.73 µg/mL (≈ 19.6 µM) | IC90 [3]: 15.1 µg/mL (≈ 43.9 µM) | IC50 [4]: 7.3 µg/mL (≈ 21.3 µM) | IC90 [4]: 25.8 µg/mL (≈ 75 µM) | IC50 (PC-3 (prostate cancer)): 7.3 µg/mL (≈ 21.3 µM) | IC90 (PC-3 (prostate cancer)): 15.1 µg/mL (≈ 44 µM) | IC50 [5]: 6.79 µg/mL (≈ 19.8 µM) | IC90 [5]: 21.3 µg/mL (≈ 62.1 µM) | IC50 (A549 (human lung cancer)): 1.8 µg/mL (≈ 5.24 µM) | IC90 (A549 (human lung cancer)): 10 µg/mL (≈ 29.1 µM) | IC50 [6]: > 16 µg/mL | IC90 [6]: > 16 µg/mL | IC50 [7]: 8.71 µg/mL (≈ 25.4 µM) | IC90 [7]: 14.2 µg/mL (≈ 41.5 µM) | IC50 [8]: 7.01 µg/mL (≈ 20.4 µM) | IC90 [8]: 17.3 µg/mL (≈ 50.4 µM) | IC50 [9]: 2.46 µg/mL (≈ 7.16 µM) | IC90 [9]: 27.9 µg/mL (≈ 81.1 µM) | IC50 [10]: 5.16 µg/mL (≈ 15 µM) | IC90 [10]: 23.7 µg/mL (≈ 69 µM) | IC50 [11]: 5.99 µg/mL (≈ 17.4 µM) | IC90 [11]: 79 µg/mL (≈ 230 µM) | IC50 [12]: 5.78 µg/mL (≈ 16.8 µM) | IC90 [12]: 10.5 µg/mL (≈ 30.5 µM) | IC50 [13]: 3.41 µg/mL (≈ 9.93 µM) | IC90 [13]: 9.55 µg/mL (≈ 27.8 µM) | IC50 [14]: 1.53 µg/mL (≈ 4.46 µM) | IC90 [14]: 5.46 µg/mL (≈ 15.9 µM) | IC50 [15]: 0.83 µg/mL (≈ 2.42 µM) | IC90 [15]: 1.8 µg/mL (≈ 5.24 µM) | IC50 [16]: 2.2 µg/mL (≈ 6.41 µM) | IC90 [16]: 5.9 µg/mL (≈ 17.2 µM) | IC50 [17]: 1.3 µg/mL (≈ 3.79 µM) | IC90 [17]: 2.73 µg/mL (≈ 7.95 µM)

Cc1c(CN(C)Cc2ccccc2)oc2c1C(=O)C(=O)c1c-2ccc2c(C)cccc12 [BS-TA-B01]
IC50 [1]: 1.31 µg/mL (≈ 3.2 µM) | IC90 [1]: 16.2 µg/mL (≈ 39.6 µM) | IC50 [2]: 0.81 µg/mL (≈ 1.98 µM) | IC90 [2]: 16 µg/mL (≈ 39.1 µM) | IC50 (MG63 (osteosarcoma)): 0.38 µg/mL (≈ 0.928 µM) | IC90 (MG63 (osteosarcoma)): 14.9 µg/mL (≈ 36.5 µM) | improvement of anti-MG63 activity as compared with tanshinone I (MG63 (osteosarcoma); MG63, vs tanshinone I): ~3 fold | IC50 [3]: 0.43 µg/mL (≈ 1.05 µM) | IC90 [3]: 3.73 µg/mL (≈ 9.11 µM) | IC50 [4]: 1.25 µg/mL (≈ 3.05 µM) | IC90 [4]: 9.41 µg/mL (≈ 23 µM) | IC50 (PC-3 (prostate cancer)): 1.83 µg/mL (≈ 4.47 µM) | IC90 (PC-3 (prostate cancer)): 16 µg/mL (≈ 39.1 µM) | IC50 [5]: 0.74 µg/mL (≈ 1.81 µM) | IC90 [5]: 8 µg/mL (≈ 19.5 µM) | IC50 (A549 (human lung cancer)): 1.7 µg/mL (≈ 4.15 µM) | IC90 (A549 (human lung cancer)): 17 µg/mL (≈ 41.5 µM) | IC50 [6]: 5.41 µg/mL (≈ 13.2 µM) | IC90 [6]: 22.8 µg/mL (≈ 55.8 µM) | IC50 [7]: 0.97 µg/mL (≈ 2.37 µM) | IC90 [7]: 3.81 µg/mL (≈ 9.3 µM) | IC50 [8]: 0.79 µg/mL (≈ 1.93 µM) | IC90 [8]: 7.25 µg/mL (≈ 17.7 µM) | IC50 [9]: 0.17 µg/mL (≈ 0.415 µM) | IC90 [9]: 16 µg/mL (≈ 39.1 µM) | IC50 [10]: 0.88 µg/mL (≈ 2.15 µM) | IC90 [10]: 29.6 µg/mL (≈ 72.3 µM) | IC50 [11]: 0.817 µg/mL (≈ 2 µM) | IC90 [11]: 39 µg/mL (≈ 95.2 µM) | IC50 [12]: 0.52 µg/mL (≈ 1.27 µM) | IC90 [12]: 2.9 µg/mL (≈ 7.08 µM) | IC50 [13]: 0.96 µg/mL (≈ 2.34 µM) | IC90 [13]: 5.3 µg/mL (≈ 12.9 µM) | IC50 [14]: 0.26 µg/mL (≈ 0.635 µM) | IC90 [14]: 0.96 µg/mL (≈ 2.34 µM) | IC50 [15]: 0.66 µg/mL (≈ 1.61 µM) | IC90 [15]: 1.91 µg/mL (≈ 4.66 µM) | IC50 [16]: 0.7 µg/mL (≈ 1.71 µM) | IC90 [16]: 2.3 µg/mL (≈ 5.62 µM) | IC50 [17]: 1.13 µg/mL (≈ 2.76 µM) | IC90 [17]: 2.95 µg/mL (≈ 7.2 µM)
